# Earlier results as cited in patent US8623825B2, “Edible fat composition for enhancing bone strength” (Enzymotec Ltd., priority 2007, dated 2014).
# What was measured:
# vertebral bone = conditions: independent of bone mineral density
# [1] = system: bone of post-menopausal women
SMILES,Vertebral bone strength (vertebral bone),Bone mass ([1]; fluoride treatment),Skeletal fragility ([1]; particularly non-vertebral bones)
O=C(c1ccc(OCCN2CCCCC2)cc1)c1c(-c2ccc(O)cc2)sc2cc(O)ccc12 [raloxifene],significantly improved,,
F [fluoride],,increased bone mass,increased skeletal fragility
